According to PubChem BioAssay (NCI):
Several values for one entry are separate records, joined by “and”; a condition that tells them apart may be missing. Equal values may be shown once.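 96-well plates; 48 h exposure; 5 concentrations. Endpoints by linear interpolation between flanking doses. Not reached: highest tested concentration assigned. GI50 is the concentration that inhibits growth by half. TGI: concentration producing complete growth inhibition.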

How the values were obtained:
Assay in all cases: NCI tumour cell line growth inhibition, 48 h
XF 498 CNS = test system: XF 498 CNS
LXFL 529 NSCLC = test system: LXFL 529 NSCLC
DLD-1 colon = test system: DLD-1 colon
RXF-631 renal = test system: RXF-631 renal
DMS 273 small cell lung = test system: DMS 273 small cell lung
MDA-N = test system: MDA-N
BT-549 breast = test system: BT-549 breast
MCF7 breast = test system: MCF7 breast
P388/ADR leukemia = test system: P388/ADR leukemia
P388 leukemia = test system: P388 leukemia
T-47D breast = test system: T-47D breast

| SMILES | TGI (XF 498 CNS) | TGI (LXFL 529 NSCLC) | TGI (DLD-1 colon) | TGI (RXF-631 renal) | TGI (DMS 273 small cell lung) | further results |
| --- | --- | --- | --- | --- | --- | --- |
| O=C1CCC(=O)C(C(=O)CCC(=O)Nc2ccc(Cl)cc2)C1 (centres undefined) | > 100 µM | > 100 µM | > 100 µM | > 100 µM | > 100 µM | – |
| O=C1NC(=Nc2ccccc2Cl)SC1C(=O)Nc1ccc([N+](=O)[O-])cc1[N+](=O)[O-] (centres undefined) | > 100 µM | > 100 µM | > 100 µM | > 100 µM | > 100 µM | – |
| CCCCCCCC(=O)O[C@H]1[C@H]2[C@@H](CC1(C)C)C(=O)[C@]13O[C@H]1C(=O)[C@]1(CO1)[C@]23C | 5.59 µM and 6.23 µM | 3.03 µM | 3.6 µM and 7.46 µM | 39 µM | 22.9 µM and 15.3 µM | TGI (MDA-N): 26.5 µM; GI50 (XF 498 CNS): 2710 nM; TGI (BT-549 breast): 28.8 µM; GI50 (MCF7 breast): 4.99 µM; TGI (MCF7 breast): 19.4 µM and 10.5 µM; TGI (P388/ADR leukemia): 1650 nM; TGI (P388 leukemia): 5.19 µM; GI50 (DMS 273 small cell lung): 10.5 µM |
| CC1(C)CC(=O)C=C(NC(=O)c2ccccc2)C1 | > 100 µM | > 100 µM | > 100 µM | > 100 µM | > 100 µM | – |
| BrCC[N+]12CCCN1CCC2 | – | 8.59 µM | 14.1 µM | 46.4 µM | 37.1 µM | TGI (T-47D breast): 35.2 µM; TGI (MDA-N): 30.2 µM; TGI (BT-549 breast): 31.3 µM |
| Cc1cccc2c1C(=O)OC2(c1cccc2ccccc12)c1cccc2ccccc12 | – | > 100 µM | > 100 µM | 51.4 µM | > 100 µM | – |
| O=C(O)CNCc1c2ccccc2nc2ccccc12 | > 77.6 µM | > 71 µM | > 100 µM | – | > 100 µM | TGI (T-47D breast): > 100 µM; TGI (MDA-N): > 100 µM; TGI (BT-549 breast): > 100 µM; TGI (MCF7 breast): > 100 µM |
| CCOc1c(Cc2ccccc2)c(=O)n2c3ccccc3n3c(=O)n(C)c(=O)c1c23 | > 100 µM | > 100 µM | > 100 µM | > 100 µM | > 100 µM | – |
| O=[N+]([O-])C1(CO)COC2(OC1)c1ccccc1-c1ccccc12 | – | > 100 µM | > 89.1 µM | > 100 µM | > 100 µM | TGI (T-47D breast): 77.2 µM; TGI (MDA-N): > 100 µM; TGI (BT-549 breast): > 88.2 µM; TGI (MCF7 breast): > 95.3 µM |
| COC(=O)C([O][Ge]([CH3])([CH3])[CH3])c1ccccc1 (centres undefined) | – | > 100 µM | > 100 µM | > 100 µM | – | GI50 (LXFL 529 NSCLC): > 100 µM; GI50 (DLD-1 colon): > 100 µM; GI50 (RXF-631 renal): > 100 µM |
| C=CCN1C(=O)C/C(=C2/CCC(=O)N2CC=C)C1=O | – | > 100 µM | > 100 µM | > 100 µM | > 100 µM | – |
| N#CC(N)(C(=O)C(=O)NCCCNC(=O)C(=O)C(N)(C#N)c1ccc(Cl)cc1)c1ccc(Cl)cc1 (centres undefined) | > 100 µM | > 100 µM | > 100 µM | > 100 µM | > 100 µM | – |
| CC(C)S(=O)(=O)ON1C(=O)c2ccc([N+](=O)[O-])cc2C1=O | > 100 µM | > 100 µM | > 100 µM | > 100 µM | > 100 µM | – |
| CCC1C(=O)OCc2c1cc1n(c2=O)Cc2ccccc2-1 (centres undefined) | > 100 µM | > 100 µM | > 100 µM | > 100 µM | > 100 µM | – |
| Nc1ccc(C(=O)N/C(=C\c2ccc3c(c2)OCO3)c2nc3ccc4c(c3[nH]2)C(=O)c2ccccc2C4=O)cc1 | > 100 µM | > 100 µM | 45.2 µM | > 100 µM | > 100 µM | – |
| C/C(CC(=O)Nc1cc(Cl)c(Cl)cc1Cl)=N\NS(=O)(=O)c1ccc(C)cc1 | 77.9 µM | > 100 µM | > 100 µM | > 100 µM | – | – |
| CC(C)C(NCc1c2ccccc2nc2ccccc12)C(=O)O (centres undefined) | 62.4 µM | > 100 µM | > 100 µM | 97.3 µM | > 100 µM | – |
| COc1cccc(C2N3CCCCC3[C@@H]3c4[nH]c5ccccc5c4CCN23)c1OC (some centres undefined) | 28.7 µM | 28.5 µM | 31.2 µM | 32.4 µM | 29.7 µM | – |
